Measured values published in PMC11079024, “Identification of a family of species-selective complex I inhibitors as potential anthelmintics” (Nature Communications, 2024).
Like-named read-outs stand apart in the source and are kept apart here.

How the values were obtained:
[1] = system: ben-1 mutant (ECA882) C. elegans; experiment: microbe, parasite or virus in culture; settings: Caenorhabditis elegans; for viability at 1 µM / viability at 2 µM / viability at 3.9 µM / viability at 15.6 µM / viability at 31.3 µM / viability at 62.5 µM / viability at 125 µM / viability at 250 µM / viability at 500 µM / viability at 1000 µM: read-out: C. elegans ben-1(e1880) development/viability
In short: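 L1 larvae (~2 worms/μL in M9) in liquid NGM with 2-fold concentrated E. coli HB101, compound at 1% DMSO, 6 days at 20 °C shaking 165 rpm. Well images scored as summed worm-associated pixels, normalized to DMSO controls; relative viability averaged over at least three biological replicates.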

L1 wild-type C. elegans = experiment: microbe, parasite or virus in culture; settings: Caenorhabditis elegans, read-out: C. elegans KCN Survival Assay LC50, estimated from fitted dose-response curves; mean of at least two biological replicates
[2] = molecular target: B. taurus (heart) complex I (Bos taurus, UniProt P03887+P17694+P42026); experiment: biochemical; assay type: biochemical; settings: for IC50: B. taurus heart mitochondria, read-out: B. taurus Complex I IC50; for activity at 0.0001 µM / activity at 0.0005 µM / activity at 0.001 µM / activity at 0.0025 µM / activity at 0.005 µM / activity at 0.013 µM / activity at 0.025 µM / activity at 0.063 µM / activity at 0.125 µM / activity at 0.313 µM / activity at 0.625 µM / activity at 1.5 µM / activity at 3 µM / activity at 15 µM / activity at 37.5 µM / activity at 75 µM: read-out: B. taurus mitochondrial complex I activity; for Log IC50 B. taurus complex I: log10 of IC50 in µM, B. taurus mitochondria
In short: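 Complex I activity followed as DCIP reduction (600 nm, 30 s reads, 15 min) with 80 μM NADH and 60 μM decylubiquinone in 25 mM KPi pH 7.5 containing 2 μM antimycin A and 2 mM KCN. Freeze-thawed mouse or bovine heart mitochondria at 0.2 mg/mL; initial-rate percent of solvent control, single-point 100 μM or dose-response.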

[3] = read-out: C. elegans (ben-1) Development & Viability Assay LC50
[4] = read-out: C. elegans ben-1 log10 LC50 (converted)
[5] = estimated from fitted dose-response curves

B. taurus (heart) complex I, sequence (P03887 whole entry): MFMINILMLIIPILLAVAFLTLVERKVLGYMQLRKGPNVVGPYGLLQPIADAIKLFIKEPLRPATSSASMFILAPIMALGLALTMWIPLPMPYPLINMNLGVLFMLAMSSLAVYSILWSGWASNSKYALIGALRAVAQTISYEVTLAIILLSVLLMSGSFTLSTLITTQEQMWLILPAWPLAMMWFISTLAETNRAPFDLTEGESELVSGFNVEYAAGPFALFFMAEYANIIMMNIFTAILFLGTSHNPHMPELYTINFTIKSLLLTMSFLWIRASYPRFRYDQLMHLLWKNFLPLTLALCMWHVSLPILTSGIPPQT
B. taurus (heart) complex I, sequence (P17694 34-463): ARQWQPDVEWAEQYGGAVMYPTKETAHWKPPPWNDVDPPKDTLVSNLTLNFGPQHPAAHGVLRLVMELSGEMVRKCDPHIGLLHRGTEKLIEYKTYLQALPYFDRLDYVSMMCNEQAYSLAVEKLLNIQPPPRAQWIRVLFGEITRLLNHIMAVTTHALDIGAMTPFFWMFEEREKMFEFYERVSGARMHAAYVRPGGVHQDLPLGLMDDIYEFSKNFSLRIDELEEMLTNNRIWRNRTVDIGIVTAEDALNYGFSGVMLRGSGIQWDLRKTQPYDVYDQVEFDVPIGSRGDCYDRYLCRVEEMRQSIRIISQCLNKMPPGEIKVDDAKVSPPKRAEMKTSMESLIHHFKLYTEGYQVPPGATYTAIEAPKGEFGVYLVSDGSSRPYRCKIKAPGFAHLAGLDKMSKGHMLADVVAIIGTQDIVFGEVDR
B. taurus (heart) complex I, sequence (P42026 38-216): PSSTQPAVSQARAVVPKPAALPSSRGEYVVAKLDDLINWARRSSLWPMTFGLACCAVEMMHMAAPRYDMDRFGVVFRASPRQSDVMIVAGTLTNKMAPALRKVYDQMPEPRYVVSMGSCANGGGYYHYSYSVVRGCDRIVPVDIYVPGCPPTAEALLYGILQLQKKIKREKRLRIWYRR

SMILES	LC50 [1, 3] [µM]	viability at 1 µM [1] [%]	viability at 2 µM [1] [%]	viability at 3.9 µM [1] [%]	viability at 15.6 µM [1] [%]	viability at 31.3 µM [1] [%]	viability at 62.5 µM [1] [%]	viability at 125 µM [1] [%]	viability at 250 µM [1] [%]	viability at 500 µM [1] [%]	viability at 1000 µM [1] [%]	LC50 [1, 4] [µM]	LC50 (L1 wild-type C. elegans) [µM]	activity at 0.0001 µM [2] [%]	activity at 0.0005 µM [2] [%]	activity at 0.001 µM [2] [%]	activity at 0.0025 µM [2] [%]	activity at 0.005 µM [2] [%]	activity at 0.013 µM [2] [%]	activity at 0.025 µM [2] [%]	also measured
FC(F)(F)c1cccc(OCCCCn2cnc3ccccc32)c1 [Compound 7925004]	47.3	93.7	95.4	96.9	76.5	75.3	28	3.4	2.3	2.6	1.1	47.3	13.9	92.5	92.1	90.6	88.9	89.8	84.7	87.1	IC50 [2, 5]: 13 µM; activity at 0.063 µM [2]: 85.1%; activity at 0.125 µM [2]: 81.8%; activity at 0.313 µM [2]: 83.3%; activity at 0.625 µM [2]: 88.4%; activity at 1.5 µM [2]: 81.4%; activity at 3 µM [2]: 76.3%; activity at 15 µM [2]: 35.9%; activity at 37.5 µM [2]: 9.66%; activity at 75 µM [2]: 1.95%; Log IC50 B. taurus complex I [2]: 1.11 µM
CCc1cc(OCCn2cnc3ccccc32)ccc1Cl [Compound 7925288]	55.2	100	96	96.4	94.7	88	39.9	3.8	3.3	2.9	1.8	55.2	19.1	89.8	91.3	88.8	86.3	84.5	89.2	82.7	IC50 [2]: 5.7 µM; activity at 0.063 µM [2]: 84.2%; activity at 0.125 µM [2]: 82.8%; activity at 0.313 µM [2]: 79.8%; activity at 0.625 µM [2]: 84.6%; activity at 1.5 µM [2]: 75.4%; activity at 3 µM [2]: 61.1%; activity at 15 µM [2]: 17.7%; activity at 37.5 µM [2]: 2.74%; activity at 75 µM [2]: 1.27%; Log IC50 B. taurus complex I [2]: 0.76 µM
Cc1ccc(SCCCCn2cnc3ccccc32)cc1 [Compound 7925333]	227	92	100	98	90.4	93.2	77.8	80.7	53.9	3.6	1	227	7.76	90.9	87.2	87.5	83.2	83.9	89.8	94.2	IC50 [2, 5]: 7.31 µM; activity at 0.063 µM [2]: 97.7%; activity at 0.125 µM [2]: 99.3%; activity at 0.313 µM [2]: 99.3%; activity at 0.625 µM [2]: 90.8%; activity at 1.5 µM [2]: 78.5%; activity at 3 µM [2]: 70%; activity at 15 µM [2]: 25.1%; activity at 37.5 µM [2]: 9.48%; activity at 75 µM [2]: 1.13%; Log IC50 B. taurus complex I [2]: 0.86 µM
Clc1ccc(SCCCCn2cnc3ccccc32)cc1 [Compound 7925515]	40.8	92.2	97	94.8	84.7	65.4	25	5	3.7	3.1	1	40.8	6.74	102	97.1	96.1	95.6	88.9	95.1	90.6	IC50 [2, 5]: 8.02 µM; activity at 0.063 µM [2]: 95.8%; activity at 0.125 µM [2]: 98.1%; activity at 0.313 µM [2]: 94.7%; activity at 0.625 µM [2]: 97.6%; activity at 1.5 µM [2]: 86.3%; activity at 3 µM [2]: 74.8%; activity at 15 µM [2]: 26.8%; activity at 37.5 µM [2]: 5.44%; activity at 75 µM [2]: 2.46%; Log IC50 B. taurus complex I [2]: 0.90 µM
Clc1ccccc1OCCCCn1cnc2ccccc21 [Compound 7925804]	49.2	91.8	87.2	83.7	79	79.6	18.3	6.8	4.1	3.2	3.8	49.2	6.97	106	116	117	118	118	117	116	IC50 [2, 5]: 1.35 µM; activity at 0.063 µM [2]: 111%; activity at 0.125 µM [2]: 99.3%; activity at 0.313 µM [2]: 90.5%; activity at 0.625 µM [2]: 75.5%; activity at 1.5 µM [2]: 54.8%; activity at 3 µM [2]: 39.2%; activity at 15 µM [2]: 9.9%; activity at 37.5 µM [2]: 3.53%; activity at 75 µM [2]: 2.37%; Log IC50 B. taurus complex I [2]: 0.13 µM
Cc1ccc(SCCCn2cnc3ccccc32)cc1 [Compound 7926035]	69.8	94.4	87.2	86.3	91.5	76.7	57.7	5.4	2.6	3.4	5.6	69.8	4.71	101	105	99.3	106	102	101	100	IC50 [2, 5]: 3.59 µM; activity at 0.063 µM [2]: 98.8%; activity at 0.125 µM [2]: 97%; activity at 0.313 µM [2]: 98.3%; activity at 0.625 µM [2]: 78.8%; activity at 1.5 µM [2]: 78.8%; activity at 3 µM [2]: 41.2%; activity at 15 µM [2]: 10%; activity at 37.5 µM [2]: 2.81%; activity at 75 µM [2]: 1.94%; Log IC50 B. taurus complex I [2]: 0.56 µM
